This is an account of results in ChEMBL document CHEMBL1201862, “PubChem BioAssay data set” (2004).

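Tested at 5 concentrations; 48 h exposure; 96-well plates; endpoints linearly interpolated, else capped at highest concentration. At the GI50, growth is halved.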 The source made the active and inactive calls. No stated cut-off is given here; in the data, active = GI50 up to about 1.1 µM and inactive = higher. Where only a bound is given, the exact number is not on record here.

Common to all, as to experiment: growth of human tumour cells (NCI), 48 h
Experiment [1] relates to HCT-116.
For experiment [2], the system named is SK-MEL-2.
Experiment [3] has as its system HCC 2998.
Experiment [4] relates to ACHN.
The subject of experiment [5] is UACC-62.
Experiment [6] concerns SF-268.
The subject of experiment [7] is HOP-62.
Experiment [8] relates to SF-295.
For experiment [9], the system named is NCI-H522.
The test system of experiment [10] is M14.
Experiment [11] has as its system SF-539.
In experiment [12] the test system is OVCAR-8.
The test system of experiment [13] is RXF 393.
The subject of experiment [14] is KM12.
The test system of experiment [15] is U-251.
The subject of experiment [16] is CAKI-1.
The test system of experiment [17] is MDA-MB-231.
The subject of experiment [18] is CCRF-CEM.
In experiment [19] the test system is A498.
The subject of experiment [20] is SW-620.

As to `Cn1c(=O)[nH]c2[nH]c3ccccc3c2c1=O`, the GI50 in experiment [1], in experiment [2], in experiment [3], in [4], in [5] and in experiment [6] was > 100 µM (inactive) each time. Also, the GI50 in [7], in experiment [8], in experiment [9], in experiment [10], in [11] and in experiment [12] was > 100 µM (inactive) throughout. The GI50 in [13], in [14], in [15], in experiment [16], in experiment [17] and in experiment [18] was > 100 µM (inactive) each time. The GI50 in experiment [19] and in [20] was > 100 µM (inactive) each time.
For `CN1CCCN2CCN(C)CCN(CC1)CC2`, the GI50 in [1], in experiment [2], in experiment [3], in experiment [4], in experiment [5] and in [6] was > 100 µM (inactive) in each case. The GI50 was > 100 µM (inactive) in experiment [7]; > 100 µM (inactive) in experiment [8]; > 100 µM (inactive) in [9]; > 100 µM (inactive) in experiment [10]; 0.0366 µM (active) in experiment [11]; > 100 µM (inactive) in experiment [12]. Also, the GI50 in experiment [13], in experiment [14], in [15], in [16], in experiment [17] and in experiment [18] was > 100 µM (inactive) each time. Further, the GI50 in experiment [19] and in experiment [20] was > 100 µM (inactive) throughout.
For `CC(C)(C)c1ccc2c(c1)CNCCNCc1cc(C(C)(C)C)ccc1OCC1(CO2)COc2ccc(C(C)(C)C)cc2CNCCNCc2cc(C(C)(C)C)ccc2OC1`, the GI50 in experiment [1] is 0.288 µM (active); in experiment [2], 1.51 µM (inactive); in [3], 0.335 µM (active); in [4], 1.6 µM (inactive); in experiment [5], 1.4 µM (inactive); in experiment [6], 1.78 µM (inactive). The GI50 in [7] was 1.66 µM (inactive); in experiment [8] it was 0.968 µM (active); in experiment [9], 0.284 µM (active); in experiment [10] it was 0.467 µM (active); in experiment [11], 0.933 µM (active); in experiment [12], 0.935 µM (active). The GI50 is 1.42 µM (inactive) in experiment [13]; 0.388 µM (active) in [14]; 0.242 µM (active) in [15]; 1.41 µM (inactive) in [16]; 0.394 µM (active) in [17]; 0.2 µM (active) in [18]. Besides, the GI50 in [19] is 0.857 µM (active); in experiment [20], 0.501 µM (active).
`Cc1cn(C2CC(O)C(COP(=O)(O)OC3CC(n4c[n+]([BH2-]C#N)c5c(=O)[nH]c(N)nc54)OC3CO)O2)c(=O)[nH]c1=O` (stereo unspecified): the GI50 in experiment [1], in [2], in experiment [3], in experiment [4], in experiment [5] and in experiment [6] was > 100 µM (inactive) each time. The GI50 in experiment [7], in experiment [8], in [9], in [11], in experiment [12] and in experiment [13] was > 100 µM (inactive) each time. Further, the GI50 in [14], in experiment [15], in experiment [16], in [17], in experiment [18] and in [19] was > 100 µM (inactive) each time. Further, the GI50 in [20] is > 100 µM (inactive).
For the molecule `O=C1C=C(OCCCCl)C(=O)c2c(O)ccc(O)c21`, the GI50 in experiment [1] was 0.459 µM (active); in [2] it was 1.02 µM (active); in [3] it was 1.91 µM (inactive); in [4], 1.59 µM (inactive); in experiment [5], 0.286 µM (active); in experiment [6], 1.73 µM (inactive). In addition, the GI50 in [7] was 1.42 µM (inactive); in experiment [8], 0.82 µM (active); in experiment [9], 2.36 µM (inactive); in experiment [10] it was 0.188 µM (active); in experiment [11], 1.38 µM (inactive); in experiment [12] it was 2.07 µM (inactive). Also, the GI50 in experiment [13] is 1.69 µM (inactive); in experiment [14] it was 1.78 µM (inactive); in experiment [15] it was 2.01 µM (inactive); in experiment [16] it was 1.85 µM (inactive); in [17], 1.74 µM (inactive); in [18] it was 0.661 µM (active). Also, the figures for the GI50 in experiment [19] and in experiment [20] were 2.13 µM (inactive) and 0.277 µM (active), respectively.
For `CCCCCCCCCCCC/C=C\CC[C@@H](O)[C@H](O)CC[C@H](O)[C@@H]1CC[C@@H](CCCCCCCC2=C[C@H](C)OC2=O)O1` [GIGANTRIONENIN], the GI50 is 1.87 µM (inactive) in experiment [1]; 2.24 µM (inactive) in experiment [2]; 17.3 µM (inactive) in experiment [3]; 1.17 µM (inactive) in experiment [4]; 1.35 µM (inactive) in [5]; 4.42 µM (inactive) in experiment [6]. The GI50 in [7] is 4.1 µM (inactive); in [8] it was 1.93 µM (inactive); in experiment [9] it was 7.45 µM (inactive); in experiment [10] it was 13.9 µM (inactive); in experiment [11], > 10 µM (inactive); in experiment [12], 2.64 µM (inactive). For the same molecule, the GI50 is 19.4 µM (inactive) in [13]; 3.92 µM (inactive) in experiment [14]; 3.08 µM (inactive) in experiment [15]; 15.8 µM (inactive) in experiment [16]; 7.18 µM (inactive) in [17]; 1.44 µM (inactive) in [18]. The GI50 in experiment [19] is 5.56 µM (inactive); in experiment [20] it was 3.35 µM (inactive).
As to `Cc1ccc(Nc2nc(N)nc3c2ncn3C2OC(CO)C(O)C2O)cc1` (stereo unspecified), the GI50 in experiment [1], in experiment [2], in experiment [3], in experiment [4], in experiment [5] and in experiment [7] was > 100 µM (inactive) throughout. Also, the GI50 in experiment [8], in experiment [9], in experiment [10], in experiment [11], in experiment [12] and in experiment [13] was > 100 µM (inactive) in each case. The GI50 is > 100 µM (inactive) in experiment [14]; > 100 µM (inactive) in experiment [15]; > 100 µM (inactive) in [16]; 98.9 µM (inactive) in experiment [17]; > 100 µM (inactive) in [18]; > 100 µM (inactive) in [19]. Besides, in experiment [20], the GI50 is > 100 µM (inactive).
On to `CCN1CCN=c2c3cc(OC)ccc3n3cnc4ccc1c2c43`, for which the GI50 was 0.0565 µM (active) in experiment [1]; 0.238 µM (active) in experiment [2]; 0.244 µM (active) in experiment [3]; 0.131 µM (active) in [4]; 0.246 µM (active) in experiment [5]; 0.427 µM (active) in experiment [6]. The GI50 was 0.193 µM (active) in experiment [7]; 0.26 µM (active) in experiment [8]; 0.00865 µM (active) in experiment [9]; 0.245 µM (active) in [10]; 0.123 µM (active) in [11]; 0.0863 µM (active) in experiment [12]. For the same molecule, the GI50 in experiment [13] is 0.33 µM (active); in experiment [14] it was 0.395 µM (active); in [15], 0.192 µM (active); in experiment [16], 0.34 µM (active); in experiment [17] it was 0.275 µM (active); in experiment [18], 0.102 µM (active). For the same molecule, the GI50 in experiment [19] is 0.225 µM (active); in experiment [20], 0.824 µM (active).
As to `CCOC(=O)C(C(N)=O)C1=Nc2cc([N+](=O)[O-])ccc2N/C1=C\C(=O)c1ccccc1` (stereo unspecified), the GI50 in experiment [1] was 15 µM (inactive); in [2] it was 15.3 µM (inactive); in [3] it was 10.1 µM (inactive); in experiment [4] it was 15.3 µM (inactive); in experiment [5], 17.3 µM (inactive); in experiment [6] it was 12.7 µM (inactive). In addition, the GI50 in [7] was 10.9 µM (inactive); in experiment [8], 16.7 µM (inactive); in experiment [9], 14.9 µM (inactive); in [10], 14.7 µM (inactive); in [11] it was 15.1 µM (inactive); in experiment [12], 16.4 µM (inactive). Besides, the GI50 in experiment [13] was 17.7 µM (inactive); in [14], 12.1 µM (inactive); in [15], 11.3 µM (inactive); in experiment [16] it was 22.9 µM (inactive); in experiment [17] it was 13.3 µM (inactive); in [19] it was 16.6 µM (inactive). The GI50 in [20] was 15.6 µM (inactive).
For the molecule `Cc1ccc(/C=C2\CCCC(CN3CCCCC3)C2=O)cc1` (stereo unspecified), the GI50 in experiment [1] was 1.76 µM (inactive); in [2], 2.89 µM (inactive); in experiment [3] it was 15.3 µM (inactive); in experiment [4], 3.98 µM (inactive); in experiment [5], 4.73 µM (inactive); in [6], 2.09 µM (inactive). Further, the GI50 in experiment [7] was 20.3 µM (inactive); in experiment [8], 17.2 µM (inactive); in experiment [9] it was 1.79 µM (inactive); in experiment [11], 4.42 µM (inactive); in [12], 2.64 µM (inactive); in experiment [13] it was 1.56 µM (inactive). Also, the GI50 in [14] was 1.27 µM (inactive); in [15] it was 14.3 µM (inactive); in [16] it was 1.79 µM (inactive); in experiment [17], 1.85 µM (inactive); in experiment [18], 0.757 µM (active); in experiment [19], 13.4 µM (inactive). Further, in experiment [20], the GI50 is 1.75 µM (inactive).
